Data set [1] deals with BV-2. Description: Antiinflammatory activity in mouse BV2 cells assessed as inhibition of LPS-induced nitric oxide production. Type of data set: functional, cell-based.
The subject of data set [2] is BV-2. Description: Cytotoxicity against mouse BV2 cells at 50 uM by MTT assay. Conditions: bv-2, 50 µM. The data set is classed as cell-based. A general note: Formazan colour is commonly taken as a measure of viable cells.

Broadly, the IC50 is the concentration that inhibits the measured activity by half. On to `COc1cc(O)c([C@@H]2COc3cc(O)ccc3C2=O)c(OC)c1OC`, for which, in the data set on BV-2 [1], the IC50 is 35.8 µM. Besides, the Activity result with BV-2 [2] was “Non-Toxic”.
Turning to `COc1ccc(-c2coc3cc(OCC=C(C)C)ccc3c2=O)cc1`, the IC50 in the data set with BV-2 [1] is 45.2 µM. Also, the Activity entry in the data set with BV-2 [2] is “Non-Toxic”.
For `O=c1c(-c2ccc(O)cc2)coc2cc(O)cc(O)c12` [GENISTEIN] the same measures were 28.4 µM and “Non-Toxic”.
In the same order, the values of `COc1cc(-c2coc3cc(O)ccc3c2=O)cc(O)c1-c1c(OC)cc([C@@H]2OO[C@@H]2CO)cc1OC` are 19.7 µM and “Non-Toxic”.
Consider `COc1cc(-c2coc3cc(O)ccc3c2=O)cc(OC)c1O`, for which the IC50 with BV-2 [1] is over 50 µM.
In the case of `COc1ccc(-c2coc3c(OC)c(OCC=C(C)C)ccc3c2=O)cc1`, the IC50 with BV-2 [1] stood at 35.7 µM. For the same compound, the Activity entry in the data set on BV-2 [2] is “Non-Toxic”.
`COc1ccc(-c2coc3cc(OCC=C(C)C)cc(O)c3c2=O)cc1OC`: the IC50 in the data set on BV-2 [1] was over 50 µM.
Same read-out and setting: as for `COc1cc(-c2coc3cc(O)cc(O)c3c2=O)ccc1O` [3'-O-METHYLOROBOL], the figure is over 50 µM; as for `COc1ccc(-c2coc3cc(O)ccc3c2=O)cc1` [FORMONONETIN], over 50 µM; as for `COc1ccc([C@@H]2COc3cc(O)ccc3C2=O)c(OC)c1O` [(3R)-VIOLANONE], over 50 µM.
The same measure, in the same setting: as for `COc1ccc([C@@H]2COc3cc(O)ccc3C2=O)c(OC)c1` [(3R)-SATIVANONE], the figure is over 50 µM.
Regarding `COc1ccc(-c2coc3c(-c4c(OC)cc([C@@H]5OO[C@@H]5CO)cc4OC)c(O)ccc3c2=O)cc1O`, the IC50 with BV-2 [1] came out at 9 µM. In the data set on BV-2 [2], the Activity entry is “Non-Toxic”.
With `COc1cc(-c2coc3c(CC=C(C)C)c(O)c(CC=C(C)C)c(O)c3c2=O)ccc1O` [FLEMINGSIN], in the data set on BV-2 [1], the IC50 was over 50 µM.
With `COc1ccc([C@@H]2COc3cc(O)ccc3C2=O)c(O)c1`, the IC50 in the data set on BV-2 [1] was found to be 39.8 µM. Moreover, the Activity result in the data set with BV-2 [2] is reported as “Non-Toxic”.
Regarding `COc1cc(-c2coc3cc(O)ccc3c2=O)ccc1O`, the IC50 with BV-2 [1] was 39.8 µM. The Activity entry in the data set on BV-2 [2] is reported as “Non-Toxic”.
In the same order, the values of `COc1cc(O)c2c(=O)c(-c3cc(OC)c(O)c(O)c3CC=C(C)C)coc2c1` are 16.5 µM and “Non-Toxic”.
For the compound `O=c1c(-c2ccc(O)cc2)coc2cc(O)ccc12` [DAIDZEIN], in the data set with BV-2 [1], the IC50 was over 50 µM.
The same measure, in the same setting: under `COc1cc(O)cc(-c2coc3cc(O)c(OC)cc3c2=O)c1` stands over 50 µM.
`COc1ccc([C@@]2(O)COc3cc(OC)ccc3C2=O)c(O)c1`: in the data set on BV-2 [1], the IC50 is over 50 µM.
Still for that read-out and setting: as for `C[C@@H]1C[C@H]2[C@@H]3CCC4=CC(=O)C=C[C@]4(C)[C@@]3(F)[C@@H](O)C[C@]2(C)[C@@]1(O)C(=O)CO` [DEXAMETHASONE], the figure is 9.5 µM.
The same measure, in the same setting: as for `COc1ccc([C@@H]2COc3cc(O)ccc3C2=O)cc1`, the figure is over 50 µM.
As for `CC(C)=CCOc1ccc2c(=O)c(-c3ccc4c(c3)OCO4)coc2c1`, in the data set on BV-2 [1], the IC50 was 46.6 µM. Further, the Activity entry in the data set with BV-2 [2] was “Non-Toxic”.
On to `COc1ccc(-c2coc3cc(OCC=C(C)C)cc(O)c3c2=O)cc1`, for which the IC50 with BV-2 [1] was over 50 µM.
The same measure, in the same setting: under `COc1cc(O)cc(-c2coc3cc(O)ccc3c2=O)c1` stands over 50 µM.
As to `COc1ccc(-c2coc3cc(OCC=C(C)C)ccc3c2=O)cc1OC`, the IC50 with BV-2 [1] was 36.9 µM. The Activity result in the data set with BV-2 [2] is recorded as “Non-Toxic”.
In the case of `COc1ccc(-c2coc3cc(O)cc(O)c3c2=O)cc1O` [PRATENSEIN], the IC50 with BV-2 [1] is 26.3 µM. In addition, the Activity entry in the data set with BV-2 [2] was “Non-Toxic”.

These data come from ChEMBL document CHEMBL4184303, “Anti-inflammatory isoflavones and isoflavanones from the roots of Pongamia pinnata (L.) Pierre” (Bioorg Med Chem Lett, 2018).
